Like-named read-outs stand apart in the source and are kept apart here.
Key:
[1] = in vitro; conditions: hamster
[2] = test system: Yellow Fever; assay: microbe, parasite or virus in culture; type: cell-based, Yellow fever virus, vaccine strain 17D (YFV-17D)
[3] = test system: DENV-2; assay: Antiviral activity against DENV-2 (Table 2)
[4] = test system: West Nile; assay: Antiviral activity against West Nile virus (Table 2); conditions: read-out: West Nile EC50
[5] = test system: BVDV; assay: microbe, parasite or virus in culture; type: cell-based; conditions: Bovine viral diarrhea virus isolates and strains, MDBK, read-out: BVDV EC50
[6] = test system: MT-4; assay: MT-4 cell test (Table 2); type: cell-based; conditions: MT-4 cells, no virus named
[7] = Cytotoxicity assay (CC50), West Nile column
[8] = in vitro; conditions: cattle (Bos taurus)
[9] = Cytotoxicity assay (CC50), DENV-2 column
[10] = test system: BHK-21 cells
[11] = test system: BT cells
[12] = test system: host cells of the West Nile test (not named); assay: Cytotoxicity assay (CC50), West Nile column; conditions: read-out: West Nile CC50; concentration reducing cell number by 50%; cell line not named
[13] = test system: host cells of the DENV-2 test (not named); assay: Cytotoxicity assay (CC50), DENV-2 column; conditions: read-out: DENV-2 CC50; concentration reducing cell number by 50%; cell line not named

Compound	CC50 [1]	EC50 ([2]; Yellow fever virus, BHK-21, read-out: Yellow Fever EC50)	EC50 ([3]; Dengue virus, DENV2, read-out: DENV-2 EC50)	EC50 [4]	EC50 [5]	EC50 ([6]; Homo sapiens, MT4)	CC50 at 4 days [7]	CC50 [8]	CC50 at 4 days [9]	CC50 [10]	EC50 ([2]; read-out: Yellow Fever EC50)	EC50 ([3]; read-out: DENV-2 EC50, DENV-2)	EC50 [6]	CC50 [11]	CC50 [12]	CC50 [13]
Nc1nc(=O)n2ccn([C@@H]3O[C@H](CO)[C@@H](O)[C@H]3O)c2n1 [2-amino-8-(β-D-ribo-furanosyl)-imidazo[1,2-a]-s-triazin-4-one]	> 100 µM	> 100 µM	> 100 µM	> 100 µM	31 µM	> 100 µM	> 100 µM	> 100 µM	> 100 µM							
Nc1nc(=O)n2ccn([C@H]3C[C@H](O)[C@@H](CO)O3)c2n1 [2-amino-8-(β-D-2-deoxyribo-furanosyl)-imidazo[1,2-a]-s-triazin-4-one]				> 100 µM						> 100 µM	> 100 µM	> 100 µM	> 100 µM	> 100 µM	> 100 µM	> 100 µM
